Results: BindingDB's records for patent US20250042850 (Athos Therapeutics, 2025)

Tests used:
Assay in all cases: Cytochrome P450 Inhibition of VNN1 Inhibitors
Cytochrome P450 1A2 = target: T1, Cytochrome P450 1A2 (Homo sapiens, UniProt P05177)
T1 sequence (P05177 whole entry): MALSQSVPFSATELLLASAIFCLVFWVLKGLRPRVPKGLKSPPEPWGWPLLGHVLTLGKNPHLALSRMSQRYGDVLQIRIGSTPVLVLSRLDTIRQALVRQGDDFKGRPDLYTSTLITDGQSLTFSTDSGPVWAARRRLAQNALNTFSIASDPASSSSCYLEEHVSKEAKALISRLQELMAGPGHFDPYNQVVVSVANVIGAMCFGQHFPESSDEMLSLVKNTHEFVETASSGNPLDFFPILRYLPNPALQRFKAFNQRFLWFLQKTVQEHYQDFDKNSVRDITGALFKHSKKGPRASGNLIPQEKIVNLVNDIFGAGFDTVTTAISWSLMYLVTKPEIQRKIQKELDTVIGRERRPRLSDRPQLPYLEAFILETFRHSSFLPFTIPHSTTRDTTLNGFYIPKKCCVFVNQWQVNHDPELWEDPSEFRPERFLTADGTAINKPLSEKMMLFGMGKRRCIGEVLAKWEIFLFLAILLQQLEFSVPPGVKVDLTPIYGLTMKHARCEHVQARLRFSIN
Description: (§1) Table 3 and 4: The cocktail was incubated in human liver microsome with NADPH regenerating system (NRS) in a shaking bath at 37±2° C. The formation of specific metabolites was monitored by LC/MS/MS. Test compound was added to the cocktail-liver microsome mixture at varying concentrations and its effect on cytochrome P450 activity was determined by analyzing the rate of specific metabolite formation. The percent inhibition was calculated and plotted with reference to the concentration, and the IC50 value for inhibition was derived by fitting the data with a standard sigmoidal dose-response equation via MLA “Quest Graph™ ED50 Calculator.” AAT Bioquest, Inc, 17 Sep. 2020, aatbio.com/tools/ed50-calculator. […] The reliability of the inhibition assay was established by confirming the inhibition of known inhibitors on different P450 enzymes.

Cytochrome P450 2C19 = Cytochrome P450 2C19 (Homo sapiens, UniProt P33261)
Description: as §1

Cytochrome P450 2C9 = Cytochrome P450 2C9 (Homo sapiens, UniProt P11712)
Description: as §1

Sequence of Cytochrome P450 2C19 (P33261 whole entry): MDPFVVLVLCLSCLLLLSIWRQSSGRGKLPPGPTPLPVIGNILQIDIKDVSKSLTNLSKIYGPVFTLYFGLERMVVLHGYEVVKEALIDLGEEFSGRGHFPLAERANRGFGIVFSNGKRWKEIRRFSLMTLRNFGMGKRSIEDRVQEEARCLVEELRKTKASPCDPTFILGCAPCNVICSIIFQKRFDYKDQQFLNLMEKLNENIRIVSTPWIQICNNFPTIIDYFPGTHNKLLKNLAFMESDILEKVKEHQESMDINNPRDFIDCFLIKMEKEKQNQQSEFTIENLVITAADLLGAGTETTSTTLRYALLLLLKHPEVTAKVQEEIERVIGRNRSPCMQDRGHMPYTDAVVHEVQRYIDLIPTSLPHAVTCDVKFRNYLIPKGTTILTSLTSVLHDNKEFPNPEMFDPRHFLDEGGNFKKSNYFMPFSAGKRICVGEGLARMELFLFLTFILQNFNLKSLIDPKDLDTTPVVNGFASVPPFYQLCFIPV
Sequence of Cytochrome P450 2C9 (P11712 whole entry): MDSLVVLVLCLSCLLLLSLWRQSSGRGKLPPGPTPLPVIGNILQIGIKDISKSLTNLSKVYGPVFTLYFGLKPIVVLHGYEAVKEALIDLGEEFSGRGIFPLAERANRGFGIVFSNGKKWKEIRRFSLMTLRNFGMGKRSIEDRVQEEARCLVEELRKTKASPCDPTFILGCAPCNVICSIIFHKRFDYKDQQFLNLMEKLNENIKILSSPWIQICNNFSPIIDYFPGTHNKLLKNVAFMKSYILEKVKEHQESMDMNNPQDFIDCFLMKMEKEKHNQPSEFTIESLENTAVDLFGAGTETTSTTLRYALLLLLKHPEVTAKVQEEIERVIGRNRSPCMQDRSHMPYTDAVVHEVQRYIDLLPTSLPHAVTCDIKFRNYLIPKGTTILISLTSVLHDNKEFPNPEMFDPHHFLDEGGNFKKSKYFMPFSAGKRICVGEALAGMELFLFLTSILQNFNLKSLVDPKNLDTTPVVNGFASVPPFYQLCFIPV

Molecule `CC(C)(CO)[C@@H](O)C(=O)n1ccc(C(=O)N2CCCC2)c1` [US20250042850, Compound 10] has an IC50 (Cytochrome P450 1A2) of over 100 µM, an IC50 (Cytochrome P450 2C19) of 62.6 µM and an IC50 (Cytochrome P450 2C9) of over 100 µM.
